Legend:
[1] = target: T1, human RORγt ligand binding domain (RORγt LBD) (Homo sapiens, UniProt P51449); assay: RORγt ThermoFluor assay; conditions: estimated from thermal shift concentration response
T1 construct: His-tag (N); TurboTEV protease cleavage site (ENLYFQG) (N); made in house; host or cells: E. coli (pHIS1, a modified pET expression vector)
T1 sequence (P51449 with tags, fused parts or gaps): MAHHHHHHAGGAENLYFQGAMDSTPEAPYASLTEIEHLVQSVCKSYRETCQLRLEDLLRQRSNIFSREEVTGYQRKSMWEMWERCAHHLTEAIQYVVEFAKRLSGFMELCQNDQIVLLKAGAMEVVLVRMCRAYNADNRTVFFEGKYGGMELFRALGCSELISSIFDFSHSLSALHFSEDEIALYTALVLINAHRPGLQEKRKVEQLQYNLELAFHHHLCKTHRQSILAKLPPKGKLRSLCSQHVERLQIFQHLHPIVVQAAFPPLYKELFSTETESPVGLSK
Experimental: This approach is applicable to a wide variety of systems, and rigorous in theoretical interpretation through quantitation of equilibrium binding constants (KD).
The shift in the melting point described as a ΔTm is proportional to the concentration and affinity of the ligand.
Protein and compound solutions are dispensed into black 384-well polypropylene PCR microplates (Abgene) and overlayed with silicone oil (1 μL, Fluka, type DC 200) to prevent evaporation.
Bar-coded assay plates are robotically loaded onto a thermostatically controlled PCR-type thermal block and then heated at a typical ramp-rate of 1° C./min for all experiments.
Fluorescence was measured by continuous illumination with UV light (Hamamatsu LC6) supplied via fiber optic and filtered through a band-pass filter (380-400 nm; >6 OD cutoff). Fluorescence emission of the entire 384-well plate was detected by measuring light intensity using a CCD camera (Sensys, Roper Scientific) filtered to detect 500±25 nm, resulting in simultaneous and independent readings of all 384 wells. Images were collected at each temperature, and the sum of the pixel intensity in a given area of the assay plate was recorded versus temperature. Reference wells contained RORγt without compounds, and the assay conditions were as follows: • 0.065 mg/mL RORγt • 60 μM 1,8-ANS • 100 mM Hepes, pH 7.0 • 10 mM NaCl • 2.5 mM GSH • 0.002% Tween-20
Project compounds were arranged in a pre-dosed mother plate (Greiner Bio-one) wherein compounds are serially diluted in 100% DMSO by 1:2 from a high concentration of 10 mM over 12 columns within a series (column 12 is a reference well containing DMSO, no compound). The compounds were robotically dispensed directly into assay plates (1×=46 nL) using a Hummingbird capillary liquid handling instrument (Digilab). Following compound dispense, protein and dye in buffer was added to achieve the final assay volume of 3 μL, followed by 1 μL of silicone oil.

[2] = target: T2, full-length human RORγt (Homo sapiens, UniProt P51449); assay: RORγt (full-length human) Reporter Assay, Conditions A; format: cell-based; conditions: for IC50: HEK293T cells, GAL4-DBD-RORγt, luciferase, read-out: RORγt (FL) Reporter Assay A, IC50; for inhibition at 6 µM: read-out: RORγt (FL) Reporter Assay A, % inhibition @ 6 μM, 6 μM compound; for inhibition at 2 µM: read-out: RORγt (FL) Reporter Assay A, % inhibition (* at 2 μM), 2 μM compound concentration (footnote *)
T2 construct: expressed in transfected cells; host or cells: HEK293T, transiently transfected with pCMV-BD-ROR
T2 sequence (P51449 1-497 isoform P51449-2): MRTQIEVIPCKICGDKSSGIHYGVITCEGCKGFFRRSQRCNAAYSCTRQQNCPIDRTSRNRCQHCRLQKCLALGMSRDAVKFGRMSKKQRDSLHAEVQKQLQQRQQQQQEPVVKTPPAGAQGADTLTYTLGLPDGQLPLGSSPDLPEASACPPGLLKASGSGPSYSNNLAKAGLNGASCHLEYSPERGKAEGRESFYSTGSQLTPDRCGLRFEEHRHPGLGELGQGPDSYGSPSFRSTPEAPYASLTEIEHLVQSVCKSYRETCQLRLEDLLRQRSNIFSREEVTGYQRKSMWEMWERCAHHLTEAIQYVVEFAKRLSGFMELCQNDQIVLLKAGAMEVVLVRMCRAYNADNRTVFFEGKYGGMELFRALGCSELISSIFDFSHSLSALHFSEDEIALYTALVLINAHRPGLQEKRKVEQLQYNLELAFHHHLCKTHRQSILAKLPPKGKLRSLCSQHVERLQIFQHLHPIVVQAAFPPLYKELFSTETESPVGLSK
Experimental: After overnight (16 to 20 hours) incubation, media were removed and cells were lysed with 20 μL 1× Passive Lysis Buffer (Promega) for 10-15 minutes. Luminescence was measured using a BMG LUMIstar OPTIMA plate reader, after addition of 75 μL/well firefly luciferase buffer, followed by 75 μL/well Renilla luciferase buffer. To calculate the effect of compounds on RORγt activity, firefly values were normalized against values of DMSO only and values of reference compound at saturating concentration, then further normalized against Renilla signals. IC50s were generated by plotting final Renilla normalized data against compound concentration and percent inhibition was calculated against DMSO control.

Kd [1] | IC50 [2] | inhibition at 6 µM [2] | inhibition at 2 µM [2] | SMILES
10 nM | 27 nM | 107% |  | CCN(CC)C(=O)c1nc(-c2nnc(CC(C)(C)O)o2)sc1-c1ccc(S(=O)(=O)N[C@@H](C)C(F)(F)F)c(Cl)c1Cl [Example 3/3, (S)-5-(2,3-Dichloro-4-(N-(1,1,1-trifluoropropan-2-yl)sulfamoyl)phenyl)-N,N-diethyl-2-(5-(2-hydroxy-2-methylpropyl)-1,3,4-oxadiazol-2-yl)thiazole-4-carboxamide]
6.3 nM | 23 nM | 101% |  | CCN(CC(F)(F)F)C(=O)c1nc(-c2nnc(C(C)(C)O)o2)sc1-c1ccc(S(=O)(=O)N[C@@H](C)C(F)(F)F)c(Cl)c1Cl [Example 4/6, (S)-5-(2,3-Dichloro-4-(N-(1,1,1-trifluoropropan-2-yl)sulfamoyl)phenyl)-N-ethyl-2-(5-(2-hydroxypropan-2-yl)-1,3,4-oxadiazol-2-yl)-N-(2,2,2-trifluoroethyl)thiazole-4-carboxamide]
120 nM | 280 nM | 105% |  | CCN(CC)C(=O)c1nc(-c2nnc(C(N)=O)o2)sc1-c1ccc(S(=O)(=O)N[C@@H](C)C(F)(F)F)c(Cl)c1Cl [Example 5/1, (S)-5-(5-(2,3-Dichloro-4-(N-(1,1,1-trifluoropropan-2-yl)sulfamoyl)phenyl)-4-(diethylcarbamoyl)thiazol-2-yl)-1,3,4-oxadiazole-2-carboxamide]
0.99 nM | 13 nM |  | 105% | CC[C@H](NS(=O)(=O)c1ccc(-c2sc(-c3nnc(C(C)(C)O)o3)nc2C(=O)N(CC)CC)c(Cl)c1Cl)C(F)(F)F [Example 6, (S)-5-(2,3-Dichloro-4-(N-(1,1,1-trifluorobutan-2-yl)sulfamoyl)phenyl)-N,N-diethyl-2-(5-(2-hydroxypropan-2-yl)-1,3,4-oxadiazol-2-yl)thiazole-4-carboxamide]

The next lines start with the compound.

SMILES | Kd [1] | IC50 [2] | inhibition at 6 µM [2] | inhibition at 2 µM [2]
C[C@H](NS(=O)(=O)c1ccc(-c2sc(-c3nnc(CC(C)(C)O)o3)nc2C(=O)N2CCC(F)(F)CC2)c(Cl)c1Cl)C(F)(F)F [Example 3, (S)-2,3-Dichloro-4-(4-(4,4-difluoropiperidine-1-carbonyl)-2-(5-(2-hydroxy-2-methylpropyl)-1,3,4-oxadiazol-2-yl)thiazol-5-yl)-N-(1,1,1-trifluoropropan-2-yl)benzenesulfonamide] | 1.6 nM | 26 nM | 107% | 
C[C@H](NS(=O)(=O)c1ccc(-c2sc(-c3nnc(CC(C)(C)O)o3)nc2C(=O)N2CCC(F)(F)C2)c(Cl)c1Cl)C(F)(F)F [Example 3/1, (S)-2,3-Dichloro-4-(4-(3,3-difluoropyrrolidine-1-carbonyl)-2-(5-(2-hydroxy-2-methylpropyl)-1,3,4-oxadiazol-2-yl)thiazol-5-yl)-N-(1,1,1-trifluoropropan-2-yl)benzenesulfonamide] | 16 nM | 57 nM | 109% | 
C[C@H](NS(=O)(=O)c1ccc(-c2sc(-c3nnc(CC(C)(C)O)o3)nc2C(=O)N2CC(F)(F)C[C@@H]2C)c(Cl)c1Cl)C(F)(F)F [Example 3/2, 2,3-Dichloro-4-(4-((S)-4,4-difluoro-2-methylpyrrolidine-1-carbonyl)-2-(5-(2-hydroxy-2-methylpropyl)-1,3,4-oxadiazol-2-yl)thiazol-5-yl)-N—((S)-1,1,1-trifluoropropan-2-yl)benzenesulfonamide] | 0.59 nM | 23 nM | 107% | 
CC(C)(O)Cc1nnc(-c2nc(C(=O)N3CCC(F)CC3)c(-c3ccc(C(O)(C(F)(F)F)C(F)(F)F)c(Cl)c3Cl)s2)o1 [Example 3/4, (5-(2,3-Dichloro-4-(1,1,1,3,3,3-hexafluoro-2-hydroxypropan-2-yl)phenyl)-2-(5-(2-hydroxy-2-methylpropyl)-1,3,4-oxadiazol-2-yl)thiazol-4-yl)(4-fluoropiperidin-1-yl)methanone] | 24 nM | 50 nM |  | 106%
CC(C)(O)Cc1nnc(-c2nc(C(=O)N3CC[C@H](F)C3)c(-c3ccc(C(O)(C(F)(F)F)C(F)(F)F)c(Cl)c3Cl)s2)o1 [Example 3/6, (S)-(5-(2,3-Dichloro-4-(1,1,1,3,3,3-hexafluoro-2-hydroxypropan-2-yl)phenyl)-2-(5-(2-hydroxy-2-methylpropyl)-1,3,4-oxadiazol-2-yl)thiazol-4-yl)(3-fluoropyrrolidin-1-yl)methanone] | 76 nM | 370 nM | 104% | 
C[C@H](NS(=O)(=O)c1ccc(-c2sc(-c3nnc(CC(C)(C)O)o3)nc2C(=O)N2CCC(F)(F)CC2)c(OC(F)F)c1F)C(F)(F)F [Example 3/7, (S)-3-(Difluoromethoxy)-4-(4-(4,4-difluoropiperidine-1-carbonyl)-2-(5-(2-hydroxy-2-methylpropyl)-1,3,4-oxadiazol-2-yl)thiazol-5-yl)-2-fluoro-N-(1,1,1-trifluoropropan-2-yl)benzenesulfonamide] | 81 nM | 290 nM | 103% | 
CC1CCN(C(=O)c2nc(-c3nnc(C(C)(C)O)o3)sc2-c2ccc(S(=O)(=O)N[C@@H](C)C(F)(F)F)c3ccccc23)CC1 [Example 4, (S)-4-(2-(5-(2-Hydroxypropan-2-yl)-1,3,4-oxadiazol-2-yl)-4-(4-methylpiperidine-1-carbonyl)thiazol-5-yl)-N-(1,1,1-trifluoropropan-2-yl)naphthalene-1-sulfonamide] | 1.5 nM | 19 nM |  | 103%
C[C@H](NS(=O)(=O)c1ccc(-c2sc(-c3nnc(C(C)(C)O)o3)nc2C(=O)N2CCCC[C@@H]2C)c(Cl)c1Cl)C(F)(F)F [Example 4/3, 2,3-Dichloro-4-(2-(5-(2-hydroxypropan-2-yl)-1,3,4-oxadiazol-2-yl)-4-((S)-2-methylpiperidine-1-carbonyl)thiazol-5-yl)-N—((S)-1,1,1-trifluoropropan-2-yl)benzenesulfonamide] | 0.38 nM | 26 nM | 105% | 
C[C@H](NS(=O)(=O)c1ccc(-c2sc(-c3nnco3)nc2C(=O)N2CCC(F)(F)CC2)c(Cl)c1Cl)C(F)(F)F [Example 4/5, (S)-2,3-Dichloro-4-(4-(4,4-difluoropiperidine-1-carbonyl)-2-(1,3,4-oxadiazol-2-yl)thiazol-5-yl)-N-(1,1,1-trifluoropropan-2-yl)benzenesulfonamide] | 12 nM | 52 nM | 110% | 
CC1CCN(C(=O)c2nc(-c3nnc(C(N)=O)o3)sc2-c2ccc(S(=O)(=O)N[C@@H](C)C(F)(F)F)c3ccccc23)CC1 [Example 5, (S)-5-(4-(4-Methylpiperidine-1-carbonyl)-5-(4-(N-(1,1,1-trifluoropropan-2-yl)sulfamoyl)naphthalen-1-yl)thiazol-2-yl)-1,3,4-oxadiazole-2-carboxamide] | 37 nM | 170 nM | 106% | 
